{
  "source": "the supplement of paper PMC6045584",
  "assay_in_all_cases": "surviving fraction relative to DMSO-only wells; higher = less growth inhibition",
  "settings_in_all_cases": "exposure time: 5 days",
  "key": {"[1]": {"compound": "Cc1ccc(-c2cc(C(F)(F)F)nn2-c2ccc(S(N)(=O)=O)cc2)cc1 [CELECOXIB]", "outline": "(§1)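 Continuous five-day exposure to inhibitors at 0.5, 1, 5, 10, 50, 100, 500 and 1000 nM started 24 hours after log-phase tumour cell lines were seeded at 250–500 cells per well in 384-well plates. Luminescence was read after 10 minutes at room temperature. Viability is given as surviving fraction, meaning CellTiter-Glo luminescence normalised to the median of DMSO-only wells.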"}, "[2]": {"compound": "CC(=O)NCC(=O)N1[C@@H]2CC[C@H]1c1ccc(Nc3ncc(C(F)(F)F)c(NC4CCC4)n3)cc12", "outline": "as §1"}, "[3]": {"compound": "CC[C@@]1(O)C(=O)OCc2c1cc1n(c2=O)Cc2cc3ccccc3nc2-1 [CAMPTOTHECIN]", "outline": "as §1"}, "[4]": {"compound": "COc1cc2ncnc(Nc3ccc(F)c(Cl)c3)c2cc1OCCCN1CCOCC1 [GEFITINIB]", "outline": "as §1"}, "[5]": {"compound": "C[C@]1(O)C[C@@H](c2nc(-c3ccc4ccc(-c5ccccc5)nc4c3)c3c(N)nccn32)C1 [OSI-906]", "outline": "as §1"}},
  "note": "± gives the standard deviation of the averaged measurements.",
  "data": [
    {"test system": "SCC36 HEADNECK", "values": [
      {"measurement": "surviving fraction", "setting": "[1]; 0.5 nM", "value": "1.05 ± 0.029"},
      {"measurement": "surviving fraction", "setting": "[1]; 1 nM", "value": "0.924 ± 0.11"},
      {"measurement": "surviving fraction", "setting": "[1]; 5 nM", "value": "1.13 ± 0.057"},
      {"measurement": "surviving fraction", "setting": "[1]; 10 nM", "value": "1.09 ± 0.025"},
      {"measurement": "surviving fraction", "setting": "[1]; 50 nM", "value": "1.16 ± 0.12"},
      {"measurement": "surviving fraction", "setting": "[1]; 100 nM", "value": "1.08 ± 0.044"},
      {"measurement": "surviving fraction", "setting": "[1]; 500 nM", "value": "1.13 ± 0.079"},
      {"measurement": "surviving fraction", "setting": "[1]; 1000 nM", "value": "1.04 ± 0.14"},
      {"measurement": "surviving fraction", "setting": "[2]; 0.5 nM", "value": "1.01 ± 0.1"},
      {"measurement": "surviving fraction", "setting": "[2]; 1 nM", "value": "1.04 ± 0.15"},
      {"measurement": "surviving fraction", "setting": "[2]; 5 nM", "value": "1.13 ± 0.16"},
      {"measurement": "surviving fraction", "setting": "[2]; 10 nM", "value": "1.12 ± 0.066"},
      {"measurement": "surviving fraction", "setting": "[2]; 50 nM", "value": "0.945 ± 0.12"},
      {"measurement": "surviving fraction", "setting": "[2]; 100 nM", "value": "0.731 ± 0.052"},
      {"measurement": "surviving fraction", "setting": "[2]; 500 nM", "value": "0.428 ± 0.048"},
      {"measurement": "surviving fraction", "setting": "[2]; 1000 nM", "value": "0.431 ± 0.051"},
      {"measurement": "surviving fraction", "setting": "[3]; 0.5 nM", "value": "0.804 ± 0.15"},
      {"measurement": "surviving fraction", "setting": "[3]; 1 nM", "value": "0.703 ± 0.13"},
      {"measurement": "surviving fraction", "setting": "[3]; 5 nM", "value": "0.704 ± 0.14"},
      {"measurement": "surviving fraction", "setting": "[3]; 10 nM", "value": "0.495 ± 0.018"},
      {"measurement": "surviving fraction", "setting": "[3]; 50 nM", "value": "0.332 ± 0.012"},
      {"measurement": "surviving fraction", "setting": "[3]; 100 nM", "value": "0.156 ± 0.0031"},
      {"measurement": "surviving fraction", "setting": "[3]; 500 nM", "value": "0.0463 ± 0.012"},
      {"measurement": "surviving fraction", "setting": "[3]; 1000 nM", "value": "0.0413 ± 0.004"},
      {"measurement": "surviving fraction", "setting": "[4]; 0.5 nM", "value": "1.08 ± 0.091"},
      {"measurement": "surviving fraction", "setting": "[4]; 1 nM", "value": "1.02 ± 0.023"},
      {"measurement": "surviving fraction", "setting": "[4]; 5 nM", "value": "1.13 ± 0.057"},
      {"measurement": "surviving fraction", "setting": "[4]; 10 nM", "value": "0.972 ± 0.057"},
      {"measurement": "surviving fraction", "setting": "[4]; 50 nM", "value": "0.735 ± 0.11"},
      {"measurement": "surviving fraction", "setting": "[4]; 100 nM", "value": "0.643 ± 0.1"},
      {"measurement": "surviving fraction", "setting": "[4]; 500 nM", "value": "0.45 ± 0.03"},
      {"measurement": "surviving fraction", "setting": "[4]; 1000 nM", "value": "0.397 ± 0.05"},
      {"measurement": "surviving fraction", "setting": "[5]; 0.5 nM", "value": "0.783 ± 0.039"},
      {"measurement": "surviving fraction", "setting": "[5]; 1 nM", "value": "0.816 ± 0.062"},
      {"measurement": "surviving fraction", "setting": "[5]; 5 nM", "value": "0.796 ± 0.083"},
      {"measurement": "surviving fraction", "setting": "[5]; 10 nM", "value": "0.805 ± 0.055"},
      {"measurement": "surviving fraction", "setting": "[5]; 50 nM", "value": "0.742 ± 0.076"},
      {"measurement": "surviving fraction", "setting": "[5]; 100 nM", "value": "0.834 ± 0.066"},
      {"measurement": "surviving fraction", "setting": "[5]; 500 nM", "value": "0.64 ± 0.19"},
      {"measurement": "surviving fraction", "setting": "[5]; 1000 nM", "value": "0.57 ± 0.046"}
    ]}
  ]
}
